{
  "source": "patent US9273184B1",
  "about": "“Synthesis of highly fluorinated amines for use in polymers and biomaterials” (University of Southern California, priority 2009, dated 2016)",
  "experiment": "31P NMR evidence for guanidinium-phosphonate binding (addition of amphiphile or comparator to MePO3K2)",
  "details": "for change of the 31P signal of the phosphonate on addition (shift and broadening, in words): FIGS. 11A-D",
  "excerpt": "Guanidinium binds to phosphonate through a salt bridge that is buttressed by a bidentate hydrogen bonding system FIG. 10. This interaction is generally stable within a wide range of pH values. Thus, guanidinium-functionalized amphiphiles (29a-c) should form complexes with phosphonates in aqueous buffer. We show here the interaction between amphipile (29a) and MePO3K2 using ^31P NMR, FIGS. 11A-D, which has been used as a probe for phosphate binding to several types of cations. […] This broadening effect is more pronounced as additional compound (29a) is added. The change in the shape of the peak is consistent with reduced tumbling associated with increased size or reversible association of compound (29a) with MePO3K2, which indicates complexation between the guanidinium species and the phosphonate group. […] Thus, guanidinium compound (29a) is not merely protonating the phosphonate in FIG. 11A. […] Urea is structurally similar to guanidinium and can potentially complex a phosphonate in a manner similar to compound (29a) (FIG. 10). In the presence of HCl, similar chemical behavior is expected when MePO3K2 is treated with urea as when it is treated with compound 29.",
  "note": "Structures can show the parent of a compound that is named as a salt.",
  "data": [
    {"smiles": "Cl", "note": "[HCl]", "values": [
      {"measurement": "change of the 31P signal of the phosphonate on addition (shift and broadening, in words)", "value": "remains sharp and shifts downfield"},
      {"measurement": "31P Chemical shift of MePO3K2", "setting": "MePO3K2 + 1 eq of additive", "value": 27.8, "unit": "ppm"},
      {"measurement": "31P Half-Height Width of MePO3K2", "setting": "MePO3K2 + 1 eq of additive", "value": 3.8, "unit": "Hz"},
      {"measurement": "31P Chemical shift of MePO3K2", "setting": "MePO3K2 + 2 eq of additive", "value": 29.9, "unit": "ppm"},
      {"measurement": "31P Half-Height Width of MePO3K2", "setting": "MePO3K2 + 2 eq of additive", "value": 3.4, "unit": "Hz"},
      {"measurement": "31P Chemical shift of MePO3K2", "setting": "MePO3K2 + 3 eq of additive", "value": 30.4, "unit": "ppm"},
      {"measurement": "31P Half-Height Width of MePO3K2", "setting": "MePO3K2 + 3 eq of additive", "value": 3.4, "unit": "Hz"},
      {"measurement": "31P chemical shift of protonated MePO3H2", "setting": "in the presence of HCl, FIG. 11B, equivalents not given", "value": 30.4, "unit": "ppm"}
    ]},
    {"smiles": "Cl.N", "note": "[NH4Cl]", "values": [
      {"measurement": "change of the 31P signal of the phosphonate on addition (shift and broadening, in words)", "value": "small downfield shift like HCl, but did not broaden the signal"},
      {"measurement": "31P Chemical shift of MePO3K2", "setting": "MePO3K2 + 1 eq of additive", "value": 21.8, "unit": "ppm"},
      {"measurement": "31P Half-Height Width of MePO3K2", "setting": "MePO3K2 + 1 eq of additive", "value": 3.6, "unit": "Hz"},
      {"measurement": "31P Chemical shift of MePO3K2", "setting": "MePO3K2 + 4 eq of additive", "value": 22.1, "unit": "ppm"},
      {"measurement": "31P Half-Height Width of MePO3K2", "setting": "MePO3K2 + 4 eq of additive", "value": 4.2, "unit": "Hz"}
    ]},
    {"smiles": "NC(N)=O", "note": "[urea, Urea]", "values": [
      {"measurement": "change of the 31P signal of the phosphonate on addition (shift and broadening, in words)", "value": "do not broaden"},
      {"measurement": "31P Chemical shift of MePO3K2", "setting": "MePO3K2 + 1 eq urea + 2 eq HCl", "value": 27.6, "unit": "ppm"},
      {"measurement": "31P Half-Height Width of MePO3K2", "setting": "MePO3K2 + 1 eq urea + 2 eq HCl", "value": 3.3, "unit": "Hz"},
      {"measurement": "31P Chemical shift of MePO3K2", "setting": "MePO3K2 + 4 eq urea + 2 eq HCl", "value": 27.7, "unit": "ppm"},
      {"measurement": "31P Half-Height Width of MePO3K2", "setting": "MePO3K2 + 4 eq urea + 2 eq HCl", "value": 3.6, "unit": "Hz"}
    ]}
  ]
}
